Experiments:
[1] = rat; cited from earlier work
[2] = 0.05 M phosphate-buffered saline (PBS) (pH 7.4) at 37° C.; cited from earlier work
[3] = Body weight in the ACHN xenograft oral study; format: in vivo, mouse; conditions: oral gavage daily
Description: (§1) To study the toxicity and therapeutic effect, in vivo studies were conducted on the micellar nanocomplexes. A subcutaneous renal cell carcinoma model was established. Adult female Balb/c athymic, immunoincompetent nude mice (average weight=19 g, age=6-8 weeks) were used.
To investigate the therapeutic effect of SU/PEG-mEGCG MNC via oral administration, a xenograft tumor model was established by inoculating 4×10^6 ACHN cells suspended in 100 μl of PBS and 100 μl of Matrigel (BD Bioscience) subcutaneously into the root of the right thigh of the mouse. Once the tumors reached a volume of 200 mm^3, the animals were divided into four groups for oral gavage of various solutions (n=8 per group) daily for 5 weeks: control (citrate buffer pH5), SU/PEG-mEGCG 8:1 (SU at 15 mg/kg), SU at 15 and 40 mg/kg. Tumors were measured twice weekly with a digital caliper, and the tumor volumes (mm^3) were calculated from the following formula: volume=(length×width^2)/2 (FIGS. 16 and 17).

[4] = Body weight / toxicity in the A498-luc xenograft study; format: in vivo, mouse
Description: as §1
To study the therapeutic effect of SU/PEG-EGCG micellar nanocomplexes by intravenous injection, a xenograft tumor model was established by inoculating 6×10^6 A498-luc cells subcutaneously into the root of the left thigh of the mouse. On day 6 after tumor inoculation, the animals were divided into four groups for tail vein injection of various solutions (n=8 per group) twice weekly for 5 weeks, while one group received daily SU gavaging at 60 mg/kg. For the tail vein injection, a volume of 200 μl of sample solution was used.
To monitor bioluminescent signals from A498-luc cells, isoflurane gas-anesthetized animals were injected intraperitoneally with 200 μl of D-luciferin (5 mg ml^−1, Promega) in PBS, and placed on a warmed stage (30° C.) inside the camera box of the IVIS imaging system (Xenogen, Alameda, Calif., USA) with a CCD camera. […] Images and measurements of luminescent signals were acquired and analyzed with the Xenogen imaging software v3.2 and quantified as photons/s. Tumor size and body weight were measured on a weekly basis. […]

| Compound | effect of EGCG administration on plasma concentrations of SU [1] | half-life [2] | weight loss ([3]; SU at 15 mg/kg) | body weight ([3]; SU at 40 mg/kg) | body weight ([4]; daily oral gavage 60 mg/kg, one week after commencement of treatment) | toxicity of oral dose ([4]; mouse, in vivo, po, 60 mg/kg/day) |
| --- | --- | --- | --- | --- | --- | --- |
| O=C(O[C@@H]1Cc2c(O)cc(O)cc2O[C@@H]1c1cc(O)c(O)c(O)c1)c1cc(O)c(O)c(O)c1 [EGCG, (−)-Epigallocatechin-3-gallate] | markedly reduced | less than 30 minutes |  |  |  |  |
| CCN(CC)CCNC(=O)c1c(C)[nH]c(/C=C2\C(=O)Nc3ccc(F)cc32)c1C [SU, Sunitinib] |  |  | not observed | significant weight loss | significant weight loss | too toxic |
